# US11542249B2, “BTK inhibitor compounds” (Eli Lilly and Company, priority 2017, dated 2023)
# How the values were obtained:
# human BTK = human BTK (Homo sapiens (Human), UniProt Q06187); test: BTK LANTHASCREEN Eu Kinase Binding Assay; settings: IC50 value ± standard deviation; full-length His-labeled BTK, kinase tracer 236; read-out: hBTK Rel IC50
# Experimental: (§1) BTK and EGFR in Vitro Assays:
# (§2) The BTK and EGFR biochemical assays utilize LANTHASCREEN® Eu Kinase Binding Assays from Thermo Fisher Scientific, measuring the binding of the kinase with a […] tracer. The assay buffer consists of 50 mM HEPES pH 7.5, 0.01% BRU™-35, 10 mM MgCl2, 1 mM EGTA, and 1 mM DTT. The test compounds are diluted and added to the assay plate with a Labcyte ECHO® 555 liquid handler. The compounds are tested in 10 point dose response curves (100 μM-0.005 μM) with a maximum DMSO concentration of 1%. The assays are performed in 20 μL in low-volume 384-well white proxiplates. For the BTK assay, the concentration of full-length His-labeled BTK in the assay is 5 nM, the Eu-anti-His antibody is 2 nM, and the kinase tracer 236 is 60 nM. For the EGFR assay, the concentration of truncated (amino acids 668-1210) GST-labeled EGFR is 5 nM, the Eu-anti-GST antibody is 2 nM, and the kinase tracer 199 is 10 nM. The components of the assay (compound, enzyme/antibody, tracer) are assembled and incubated for 30 min prior to being read on a Perkin-Elmer EnVision with excitation at 340 nm, tracer emission at 665 nm, and antibody emission at 615 nm. The signal ratio is converted to percent inhibition using the following equation: % Inhibition=100−[(Test Compound−Median Minimum)/(Median Maximum−Median Minimum)×100].
# (§3) The following Table 1 and Table 2 describes the relative IC50 data vs. human BTK, human EGFR, and human whole blood CD69.
# human EGFR = human EGFR (Homo sapiens (Human), UniProt P00533); test: EGFR LANTHASCREEN Eu Kinase Binding Assay; settings: IC50 value ± standard deviation; truncated GST-labeled EGFR, kinase tracer 199; read-out: hEGFR Rel IC50
# Experimental: as §1, §2
# [1] = tested on: activated B cells in human whole blood (CD69); test: Human Whole Blood CD69 in vitro assay (B cell activation, flow cytometry); assay type: cell-based; settings: IC50 value ± standard deviation, anti-human-IgD-Dextran stimulation, read-out: HWB CD69 Rel IC50
# Experimental: Human Whole Blood CD69 in Vitro Assay:
# The HWB CD69 assay measures activated B cells in human whole blood using a flow cytometer. Compounds are diluted and added to assay plates with a Labcyte ECHO® 555 liquid handler. Compounds are tested in 10 point dose response curves (20 μM-0.001 μM) in 96-well v-bottom plates with a maximum DMSO concentration of 0.2%. Fresh blood from individual healthy volunteer is mixed with HEPES (0.5 ml HEPES added per 10 ml blood) and 100 μl/well is added to compound plates. The plates are sealed and incubated in a 37° C. incubator for 3 h. Anti-human-IgD-Dextran is added to each well to give a final concentration of 100 ng/ml, mixed, and put back into the incubator. After 1 h, the cells are washed with cold FACS buffer and transferred to a deep well plate. The cells are incubated with anti-human CD69-PE (BIOLEGEND®, clone FN50) and anti-human CD19-APC (BIOLEGEND®, clone HIB19) antibodies on ice for 20 min. The cells are washed and incubated in eBioscience™ 1-step Fix/Lyse solution (10×) at RT to lyse the red blood cells and fix the other cells. The white cells are pelleted and washed in FACS buffer and then brought up in read buffer. The suspended cells are transferred to 96-well round bottom plates and read on an IntelliCyt iQue® Screener Plus flow cytometer. From the SSC (Side Scatter Channel) vs FSC (Forward Scatter Channel) graph, the lymphocytes are identified. Lymphocytes are identified with gated on positive CD19 marker for quantify CD69 (a marker of activated B lymphocytes) MFI (mean fluorescent intensity/cell). The signal ratio is converted to percent inhibition using the following equation: % Inhibition=100−[(Test Compound−Median Min)/(Median Max−Median Min)×100].
# as §3
# Rat Oral Bioavailability = assay type: in vivo, Sprague-Dawley rats; settings: Sprague-Dawley, plasma, PO 3 mg/kg vs IV 1 mg/kg, read-out: Rat Oral Bioavailability (% F)
# Experimental: The test compound is administered to Sprague-Dawley rats intravenously (IV) at 1 mg/kg (using vehicles of either: 20% CAPTISOL® in 25 mM sodium phosphate buffer, pH2 quantum satis; or 25% DMA, 15% EtOH, 10% propylene glycol, 25% 2-pyrrolidone, and 25% purified water) and orally (PO) at 3 mg/kg (using a vehicle of 1% hydroxyethyl cellulose, 0.25% polysorbate 80, 0.05% Antifoam 1510-US, and purified water quantum satis). Serial blood samples are collected at 0.08, 0.25, 0.5, 1, 2, 4, 8, and 12 h post dose for IV bolus and at 0.25, 0.5, 1, 2, 4, 8, and 12 h post dose after oral administration. After treatment with an EDTA […], plasma is obtained by centrifugation and stored at −70° C. until analysis by LC-MS/MS. Test article concentration is determined in plasma and uploaded into the Watson LIMS™ system where noncompartmental analysis is used to calculate Area Under the Curve (AUC) for both IV and PO arms. Bioavailability (% F) is calculated via the following equation, %F=(AUCPO×DoseIV)/(AUCIV×DosePO)×100. Table 3 indicates the rat oral bioavailability of select BTK inhibitors.
# Chain of human BTK (Q06187 whole entry): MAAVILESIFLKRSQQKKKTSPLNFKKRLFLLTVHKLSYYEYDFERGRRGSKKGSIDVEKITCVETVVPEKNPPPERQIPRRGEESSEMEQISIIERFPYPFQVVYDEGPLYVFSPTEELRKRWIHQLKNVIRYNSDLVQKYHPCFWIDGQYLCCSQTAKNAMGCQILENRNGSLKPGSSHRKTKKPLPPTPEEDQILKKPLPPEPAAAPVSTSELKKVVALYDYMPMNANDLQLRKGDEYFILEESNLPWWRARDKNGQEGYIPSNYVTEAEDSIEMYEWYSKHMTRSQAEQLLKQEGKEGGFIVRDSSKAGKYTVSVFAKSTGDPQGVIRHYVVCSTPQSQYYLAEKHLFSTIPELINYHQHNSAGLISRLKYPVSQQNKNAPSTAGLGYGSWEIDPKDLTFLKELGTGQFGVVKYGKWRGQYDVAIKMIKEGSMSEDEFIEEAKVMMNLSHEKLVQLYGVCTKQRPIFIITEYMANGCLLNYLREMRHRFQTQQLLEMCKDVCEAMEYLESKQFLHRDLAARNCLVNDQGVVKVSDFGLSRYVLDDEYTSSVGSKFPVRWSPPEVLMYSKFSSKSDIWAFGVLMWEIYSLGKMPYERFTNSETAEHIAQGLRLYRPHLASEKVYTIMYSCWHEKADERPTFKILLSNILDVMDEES
# Chain of human EGFR (P00533 668-1210): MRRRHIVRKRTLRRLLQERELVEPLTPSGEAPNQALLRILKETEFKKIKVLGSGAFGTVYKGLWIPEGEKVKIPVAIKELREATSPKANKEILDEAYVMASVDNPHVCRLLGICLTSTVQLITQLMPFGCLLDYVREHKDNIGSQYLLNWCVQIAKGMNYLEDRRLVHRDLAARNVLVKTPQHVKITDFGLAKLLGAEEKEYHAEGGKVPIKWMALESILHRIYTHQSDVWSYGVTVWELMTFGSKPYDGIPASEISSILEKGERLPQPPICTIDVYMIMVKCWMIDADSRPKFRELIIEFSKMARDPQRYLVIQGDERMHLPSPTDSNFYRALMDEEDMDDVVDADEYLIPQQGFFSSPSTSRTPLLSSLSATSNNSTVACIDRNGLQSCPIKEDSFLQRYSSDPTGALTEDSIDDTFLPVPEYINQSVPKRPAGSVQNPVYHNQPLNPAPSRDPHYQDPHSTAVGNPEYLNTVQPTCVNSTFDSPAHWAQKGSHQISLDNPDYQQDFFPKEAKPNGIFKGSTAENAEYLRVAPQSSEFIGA
SMILES,IC50 (human BTK) [µM],IC50 (human EGFR) [µM],IC50 [1] [µM],bioavailability (Rat Oral Bioavailability) [%]
"C=CC(=O)N1CCC(Nc2cncc(-c3cnc(Oc4cccc(Cl)c4)nc3)n2)CC1 [Example 44, 1-[4-[[6-[2-(3-chlorophenoxy)pyrimidin-5-yl]pyrazin-2-yl]amino]-1-piperidyl]prop-2-en-1-one]",0.00611,0.207 ± 0.0319,0.126 ± 0.0297,36.8
"C=CC(=O)N1CCC(Nc2cncc(-c3cnc(Nc4cccc(Cl)c4)nc3)c2)CC1C (centres unmarked) [Example 47, 1-[4-[[5-[2-(3-chloroanilino)pyrimidin-5-yl]-3-pyridyl]amino]-2-methyl-1-piperidyl]prop-2-en-1-one]",0.0067,6.1,0.355 ± 0.039,
"C=CC(=O)N1CC(Nc2cncc(-c3cnc(Oc4ccc(F)c(Cl)c4)nc3)c2)C1 [Example 13, 1-[3-[[5-[2-(3-chloro-4-fluoro-phenoxy)pyrimidin-5-yl]-3-pyridyl]amino]azetidin-1-yl]prop-2-en-1-one]",0.0382 ± 0.0169,0.45 ± 0.0532,0.715 ± 0.0935,
"C=CC(=O)N1CC(Nc2cncc(-c3cnc(Oc4ccc(F)c(OC(F)F)c4)nc3)c2)C1 [Example 9, 1-[3-[[5-[2-[3-(difluoromethoxy)-4-fluoro-phenoxy]pyrimidin-5-yl]-3-pyridyl]amino]azetidin-1-yl]prop-2-en-1-one]",0.0606 ± 0.000351,3.76 ± 1.4,0.655 ± 0.295,
"CN(C)C/C=C/C(=O)N1CCC(Nc2cncc(-c3cnc(Nc4cccc(Cl)c4)nc3)n2)CC1 [Example 46, (E)-1-[4-[[6-[2-(3-chloroanilino)pyrimidin-5-yl]pyrazin-2-yl]amino]-1-piperidyl]-4-(dimethylamino)but-2-en-1-one]",< 0.005,6.04 ± 2.09,0.157 ± 0.0523,
"C=CC(=O)N1CCC(Nc2cncc(-c3cnc(Oc4cccc(OC(F)F)c4)nc3)n2)CC1 [Example 38, 1-[4-[[6-[2-[3-(difluoromethoxy)phenoxy]pyrimidin-5-yl]pyrazin-2-yl]amino]-1-piperidyl]prop-2-en-1-one]",0.00689 ± 0.000835,0.908 ± 0.546,0.0666 ± 0.0199,
"C=CC(=O)N1CC(Nc2cncc(-c3cnc(Nc4cccc(C)n4)nc3)n2)C1 [Example 40, 1-[3-[[6-[2-[(6-methyl-2-pyridyl)amino]pyrimidin-5-yl]pyrazin-2-yl]amino]azetidin-1-yl]prop-2-en-1-one]",0.00558 ± 0.000182,0.0549 ± 0.0154,0.144 ± 0.0534,
"C=CC(=O)N1CC(Nc2cncc(-c3cnc(Oc4cccc(F)c4)nc3)c2)C1 [Example 11, 1-[3-[[5-[2-(3-fluorophenoxy)pyrimidin-5-yl]-3-pyridyl]amino]azetidin-1-yl]prop-2-en-1-one]",0.0181 ± 0.00305,0.644 ± 0.0618,0.242 ± 0.0912,
"C#Cc1cccc(Oc2ncc(-c3cncc(NC4CN(C(=O)C=C)C4)c3)cn2)c1 [Example 14, 1-[3-[[5-[2-(3-ethynylphenoxy)pyrimidin-5-yl]-3-pyridyl]amino]azetidin-1-yl]prop-2-en-1-one]",0.0178 ± 0.00377,0.242 ± 0.231,0.299 ± 0.143,
"C=CC(=O)N1CC(Nc2cncc(-c3cnc(Nc4cccc(C(F)(F)F)c4)nc3)c2)C1 [Example 18, 1-[3-[[5-[2-[3-(trifluoromethyl)anilino]pyrimidin-5-yl]-3-pyridyl]amino]azetidin-1-yl]prop-2-en-1-one]",< 0.005,0.247 ± 0.0993,0.071 ± 0.0128,
"C=CC(=O)N1CC(Nc2cncc(-c3cnc(Oc4cc(F)cc(F)c4)nc3)n2)C1 [Example 30, 1-[3-[[6-[2-(3,5-difluorophenoxy)pyrimidin-5-yl]pyrazin-2-yl]amino]azetidin-1-yl]prop-2-en-1-one]",0.0432 ± 0.0119,1.08 ± 0.229,0.815 ± 0.11,
"C=CC(=O)N1CCC(Nc2cncc(-c3cnc(Nc4cccc(Cl)c4)nc3)c2)CC1 [Example 19, 1-[4-[[5-[2-(3-chloroanilino)pyrimidin-5-yl]-3-pyridyl]amino]-1-piperidyl]prop-2-en-1-one]",< 0.005,0.523 ± 0.112,0.148 ± 0.0331,79.2
"C=CC(=O)N1CC(Nc2cncc(-c3cnc(Oc4cccc(C(F)(F)F)c4)nc3)c2)C1 [Example 8, 1-[3-[[5-[2-[3-(trifluoromethyl)phenoxy]pyrimidin-5-yl]-3-pyridyl]amino]azetidin-1-yl]prop-2-en-1-one]",0.0231 ± 3.41e-05,0.724 ± 0.375,0.239 ± 0.0345,
"C=CC(=O)N1C[C@@H](Nc2cncc(-c3cnc(Oc4cccc(Cl)c4)nc3)n2)[C@@H]1C (single isomer, unassigned; isomer 1) [Example 32]",0.00688 ± 0.00137,0.194 ± 0.0479,0.135 ± 0.0665,
"C=CC(=O)N1CCC(Nc2cncc(-c3cnc(Nc4cccc(C(F)(F)F)n4)nc3)c2)CC1 [Example 21, 1-[4-[[5-[2-[[6-(trifluoromethyl)-2-pyridyl]amino]pyrimidin-5-yl]-3-pyridyl]amino]-1-piperidyl]prop-2-en-1-one]",0.00884 ± 0.00121,> 100,0.16 ± 0.0382,
"C=CC(=O)N1CC[C@H](Nc2cncc(-c3cnc(Nc4cccc(OC(F)F)c4)nc3)n2)C1 [Example 39, 1-[(3S)-3-[[6-[2-[3-(difluoromethoxy)anilino]pyrimidin-5-yl]pyrazin-2-yl]amino]pyrrolidin-1-yl]prop-2-en-1-one]",0.0056,1.46 ± 0.2,0.103 ± 0.0606,
"C=CC(=O)N1CC(Nc2cncc(-c3cnc(Oc4cccc(OC(F)F)c4)nc3)c2)C1 [Example 4, 1-[3-[[5-[2-[3-(difluoromethoxy)phenoxy]pyrimidin-5-yl]-3-pyridyl]amino]azetidin-1-yl]prop-2-en-1-one]",0.00998 ± 0.0043,0.872 ± 0.456,0.11 ± 0.0794,
